Laboratory results as given in patent US6514981B1, “Methods of modulating tyrosine protein kinase function with indolinone compounds” (Sugen, Inc., priority 1998, dated 2003).
pIC50: −log10 of the molar value.

Experiments:
Format in all cases: cell-based
human FLK-1 = human FLK-1 (Homo sapiens, UniProt P35968); experiment: FLK-1 receptor phosphorylation assay in cells (ELISA); settings: NIH3T3 C7#3 cells, VEGF stimulation
A431 cells = experiment: Growth of A431 cells (SRB); settings: Homo sapiens, A-431, 72 h, 2% calf serum, 3 days
Protocol: The following assay measures growth rates for A43 1 cells.
2% calf serum/DMEM+2 mM glutamine, Pen/Strep
2. Dilute cells in growth medium to 60,000 cell/mL. Transfer 100 μL of cells to each well in a 96-well flat bottom plate to give 6000 cells/well.
1. In a 96-well round bottom plate, add 120 μL of growth medium containing 2×final % DMSO found in highest screening concentration of compound to columns 1 to 11. For example, if the highest concentration is […], ad this is made from a 100 mM stock, 1×DMSO is 0.1%, so 2×DMSO is 0.2%. This plate is used to titrate out the compound, 4 rows per compound.
2. In a sterile 15 mL tube, make a 2×solution of the highest screening concentration of compound in growth medium plus 2×DMSO. 1 mL per cell line is needed. The starting concentration of the compound is usually 100 μM but this concentration may vary depending upon the solubility of the compound.
3. Transfer 240 μL of the 2×starting compound solution to qudruplicate wells in column 12 of the 96-well round bottom plate. Do 1:2 serial dilutions across the plate from right to left by transferring […] from column 12 to column 11, column 11 to 10 and so on through column 2. […]
6. Read plates on Dynatech ELISA Plate REader at 570 nm with reference at 630 nm. […]

SKOV3 cells = experiment: Growth of SKOV3 cells (SRB); settings: Homo sapiens, SK-OV-3, 2%
Excerpt: The assay is the same as the assay set forth in EXAMPLE 10, except that SKOV3 cells (ATCC HTB77) are used instead of A431 cells.
Compound of formula VI inhibited the growth rate of SKOV3 cells as illustrated in Table 10.

HUV-EC-C cells [1] = experiment: HUV-EC-C assay (3H-thymidine), VEGF; settings: Homo sapiens, 3H-thymidine incorporation, HUVEC
Protocol: (§1) The following protocol may also be used to measure a compound's activity against PDGF-R, FGF-R or Flk-1/KDR, all of which are naturally expressed by HUV-EC cells. 1. Wash and trypsinize HUV-EC-C cells (human umbilical vein endothelial cells, (American Type Culture Collection; catalogue no. 1730 CRL). Wash with Dulbecco's phosphate-buffered saline (D-PBS; obtained from Gibco BRL, catalogue no. 14190-029) 2 times at about 1 mL/10 CM^2 of tissue culture flask. Trypsinize with 0.05% trypsin-EDTA in non-enzymatic cell dissociation solution (Sigma Chemical Company; catalogue no. C-1544). The 0.05% trypsin was made by diluting 0.25% trypsin/1 mM EDTA (Gibco; catalogue no. 25200-049) in the cell dissociation solution. Trypsinize with about 1 mL/25-30 cm^2 of tissue culture flask for about 5 minutes at 37° C. After cells have detached from the flask, add an equal volume of assay medium and transfer to a 50 mL sterile centrifuge tube (Fisher Scientific; catalogue no. 05-539-6). 2. Wash the cells with about 35 mL assay medium in the 50 mL sterile centrifuge tube by adding the assay medium, centrifuge for 10 minutes at approximately 200×g aspirate the supernatant and resuspend with 35 mL D-PBS. Repeat the wash two more times with D-PBS, resuspend the cells in about 1 mL assay medium/15 cm^2 of tissue culture flask. […]

HUV-EC-C cells [2] = experiment: HUV-EC-C assay (3H-thymidine), aFGF; settings: Homo sapiens, 3H-thymidine incorporation, HUVEC
Protocol: as §1

**Q.** How did the pIC50 (human FLK-1) turn out when `Cc1cc(/C=C2/C(=O)Nc3ccccc32)c(C)c2c1[nH]c1ccccc12` [VI] was run?
**A.** The pIC50 was 5.32.

**Q.** What about the IC50 (A431 cells) of the same compound?
**A.** Its IC50 is 0.712 µM.

**Q.** And the IC50 (SKOV3 cells)?
**A.** Its IC50 is 1.08 µM.

**Q.** What about the IC50 (HUV-EC-C cells [1]) of the same compound?
**A.** Its IC50 is 0.68 µM.

**Q.** What about the IC50 (HUV-EC-C cells [2]) of the same compound?
**A.** The IC50 was 0.63 µM.
